Some results are limits rather than exact numbers.

These results are taken from patent US20250059214A1, “AMIDE-CONTAINING LONP1 INHIBITOR COMPOUNDS, USES AND METHODS” (Pretzel Therapeutics, Inc., priority 2021, published 2025).

The target of the assay is LONP1 (NM_004793.4) (Homo sapiens (Human), UniProt P36776). Kind of assay: FRET-based assay for LONP1 protease activity using fluorogenic peptide substrate. The assay is classed as biochemical. The following applies: LONP1 15 nM as monomer, substrate 3 μM, 1 hour at 37° C., 15 min pre-incubation with compound; average of a minimum of two repeats. Here is the method: Inhibition of LONP1 protease activity by an inhibitor compound of the disclosure elicits a decrease in the fluorescent signal.
Chain of LONP1 (NM_004793.4) (P36776 68-959): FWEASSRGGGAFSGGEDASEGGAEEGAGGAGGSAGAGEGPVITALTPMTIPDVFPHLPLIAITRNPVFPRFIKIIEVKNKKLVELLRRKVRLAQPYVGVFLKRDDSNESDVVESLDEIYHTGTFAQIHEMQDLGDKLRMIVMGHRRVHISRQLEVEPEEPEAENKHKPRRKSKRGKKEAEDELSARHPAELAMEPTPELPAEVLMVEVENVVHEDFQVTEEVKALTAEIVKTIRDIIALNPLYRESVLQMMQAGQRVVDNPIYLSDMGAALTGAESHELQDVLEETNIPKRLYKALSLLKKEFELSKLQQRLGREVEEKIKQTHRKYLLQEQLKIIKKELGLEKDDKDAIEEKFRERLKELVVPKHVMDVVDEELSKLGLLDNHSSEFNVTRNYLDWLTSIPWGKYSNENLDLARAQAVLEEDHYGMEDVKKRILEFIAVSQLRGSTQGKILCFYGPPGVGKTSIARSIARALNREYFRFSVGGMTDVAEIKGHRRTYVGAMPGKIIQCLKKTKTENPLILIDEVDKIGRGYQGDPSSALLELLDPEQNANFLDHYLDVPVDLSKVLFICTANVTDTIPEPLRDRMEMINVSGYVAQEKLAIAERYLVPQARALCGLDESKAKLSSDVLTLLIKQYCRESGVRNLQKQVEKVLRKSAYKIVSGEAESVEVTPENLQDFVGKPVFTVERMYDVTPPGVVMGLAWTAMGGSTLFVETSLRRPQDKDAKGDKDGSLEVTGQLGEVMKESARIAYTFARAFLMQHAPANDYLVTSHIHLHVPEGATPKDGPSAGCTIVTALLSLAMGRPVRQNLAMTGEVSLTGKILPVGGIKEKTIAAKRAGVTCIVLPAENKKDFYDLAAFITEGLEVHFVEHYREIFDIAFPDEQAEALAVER
The LONP1-containing mix (10 μL) was incubated with the test compound for 15 min at 37° C. before adding the peptide-containing mix (5 μL). Solutions were dispensed using a small cassette-Multidrop Combi (Thermo Scientific).
Each value is based on an average of a minimum of two repeats.
Turning to `CC(C)C[C@H](NC(=O)[C@@H](CC(=O)N1CCOCC1)NC(=O)c1cnccn1)B(O)O` [Compound 3, ((R)-3-methyl-1-((R)-4-morpholino-4-oxo-2-(pyrazine-2-carboxamido)butanamido)butyl)boronic acid], the IC50 was 50 to 500 nM.
In the case of `O=C(N[C@H](CC(=O)N1CCOCC1)C(=O)N[C@@H](CCc1ccccc1)B(O)O)c1cnccn1` [Compound 4, ((R)-1-((R)-4-morpholino-4-oxo-2-(pyrazine-2-carboxamido)butanamido)-3-phenylpropyl)boronic acid] it was 50 to 500 nM; in that of `CCCC[C@H](NC(=O)[C@@H](CC(=O)N1CCOCC1)NC(=O)c1cnccn1)B(O)O` [Compound 5, ((R)-1-((R)-4-morpholino-4-oxo-2-(pyrazine-2-carboxamido)butanamido)pentyl)boronic acid], 50 to 500 nM; in that of `Cc1nc(C)c(C(=O)N[C@H](CC(=O)N2CCOCC2)C(=O)N[C@@H](CC(C)C)B(O)O)o1` [Compound 6, ((R)-1-((R)-2-(2,4-dimethyloxazole-5-carboxamido)-4-morpholino-4-oxobutanamido)-3-methylbutyl)boronic acid], 50 to 500 nM.
In the case of `CC(=O)N[C@H](CC(=O)N1CCOCC1)C(=O)N[C@@H](CCCc1ccccc1)B(O)O` [Compound 11] it was 50 to 500 nM; in that of `CCC[C@H](NC(=O)[C@@H](CC(=O)N1CCOCC1)NC(=O)c1cnccn1)B(O)O` [Compound 18, ((R)-1-((R)-4-morpholino-4-oxo-2-(pyrazine-2-carboxamido)butanamido)butyl)boronic acid], 50 to 500 nM; in that of `CC[C@H](NC(=O)[C@@H](CC(=O)N1CCOCC1)NC(=O)c1cnccn1)B(O)O` [Compound 19, ((R)-1-((R)-4-morpholino-4-oxo-2-(pyrazine-2-carboxamido)butanamido)propyl)boronic acid], 50 to 500 nM.
As for `CN(C)C(=O)N[C@H](CC(=O)N1CCOCC1)C(=O)N[C@@H](CCCc1ccccc1)B(O)O` [Compound 20], the IC50 fell in the range of 50 to 500 nM.
As to `O=C(N[C@H](CC(=O)N1CCOCC1)C(=O)N[C@@H](CCCc1ccccc1)B(O)O)C1CCCCC1` [Compound 22, ((R)-1-((R)-2-(cyclohexanecarboxamido)-4-morpholino-4-oxobutanamido)-4-phenylbutyl)boronic acid], the IC50 was below 50 nM.
For the molecule `O=C(N[C@H](CC(=O)N1CCOCC1)C(=O)N[C@@H](CCCc1ccccc1)B(O)O)C1CCOCC1` [Compound 23, ((R)-1-((R)-4-morpholino-4-oxo-2-(tetrahydro-2H-pyran-4-carboxamido)butanamido)-4-phenylbutyl)boronic acid], the IC50 is below 50 nM.
For `O=C(N[C@H](CC(=O)N1CCOCC1)C(=O)N[C@@H](Cc1ccccc1)B(O)O)c1cnccn1` [Compound 28, ((R)-1-((R)-4-morpholino-4-oxo-2-(pyrazine-2-carboxamido)butanamido)-2-phenylethyl) boronic acid], the IC50 was 500 to 5000 nM.
Take `O=C(N[C@@H](CCCc1ccccc1)B(O)O)[C@@H](CC(=O)N1CCOCC1)NS(=O)(=O)c1cccc(Cl)c1` [Compound 29, ((R)-1-((R)-2-((3-chlorophenyl)sulfonamido)-4-morpholino-4-oxobutanamido)-4-phenylbutyl)boronic acid]: the IC50 is below 50 nM.
Regarding `O=C(N[C@@H](CCCc1ccccc1)B(O)O)[C@@H](CC(=O)N1CCOCC1)NS(=O)(=O)c1ccccc1Cl` [Compound 30, ((R)-1-((R)-2-((2-chlorophenyl)sulfonamido)-4-morpholino-4-oxobutanamido)-4-phenylbutyl)boronic acid], the IC50 is 50 to 500 nM.
For `O=C(N[C@@H](CCCc1ccccc1)B(O)O)[C@@H](CC(=O)N1CCOCC1)NCc1ccccc1` [Compound 31], the IC50 lay within 50 to 500 nM.
The result for `O=C(N[C@H](CC(=O)N1CCOCC1)C(=O)N[C@@H](CCCc1ccccc1)B(O)O)O[C@H]1CCOC1` [Compound 32, ((R)-1-((R)-4-morpholino-4-oxo-2-(((((S)tetrahydrofuran-3-yl)oxy)carbonyl)amino)butanamido)-4-phenylbutyl)boronic acid] reads below 50 nM.
In the case of `O=C(N[C@@H](CCCc1ccccc1)B(O)O)[C@H](CC(=O)N1CCOCC1)NS(=O)(=O)c1ccccc1` [Compound 33, ((R)-1-((S)-4-morpholino-4-oxo-2-(phenylsulfonamido)butanamido)-4-phenylbutyl)boronic acid] it was below 50 nM; in that of `CC(C)(C)OC(=O)N(Cc1ccccc1)[C@H](CC(=O)N1CCOCC1)C(=O)N[C@@H](CCCc1ccccc1)B(O)O` [Compound 34, ((R)-1-((R)-2-(benzyl(tert-butoxycarbonyl)amino)-4-morpholino-4-oxobutanamido)-4-phenylbutyl)boronic acid], 500 to 5000 nM.
In the case of `O=C(N[C@H](CC(=O)N1CCOCC1)C(=O)N[C@@H](CCCc1ccccc1)B(O)O)c1cc(Cl)ccc1Cl` [Compound 35, ((R)-1-((R)-2-(2,5-dichlorobenzamido)-4-morpholino-4-oxobutanamido)-4-phenylbutyl)boronic acid], the IC50 is below 50 nM.
For `O=C(N[C@H](CC(=O)N1CCOCC1)C(=O)N[C@@H](CCCc1ccccc1)B(O)O)O[C@@H]1CCOC1` [Compound 36, ((R)-1-((R)-4-morpholino-4-oxo-2-(((((R)-tetrahydrofuran-3-yl)oxy)carbonyl)amino)butanamido)-4-phenylbutyl)boronic acid], the IC50 is below 50 nM.
Turning to `O=C(N[C@@H](CCCc1ccccc1)B(O)O)[C@@H](CC(=O)N1CCOCC1)NS(=O)(=O)c1cc(Cl)ccc1Cl` [Compound 37, ((R)-1-((R)-2-((2,5-dichlorophenyl)sulfonamido)-4-morpholino-4-oxobutanamido)-4-phenylbutyl)boronic acid], the IC50 is below 50 nM.
For `CC(C)NC(=O)N[C@H](CC(=O)N1CCOCC1)C(=O)N[C@@H](CCCc1ccccc1)B(O)O` [Compound 38, ((R)-1-((R)-2-(3-isopropylureido)-4-morpholino-4-oxobutanamido)-4-phenylbutyl)boronic acid], the IC50 was 50 to 500 nM.
As to `O=C(N[C@@H](CCCc1ccccc1)B(O)O)[C@@H](CC(=O)N1CCOCC1)NS(=O)(=O)c1cnccn1` [Compound 39, ((R)-1-((R)-4-morpholino-4-oxo-2-(pyrazine-2-sulfonamido)butanamido)-4-phenylbutyl)boronic acid], the IC50 lay within 50 to 500 nM.
In the case of `O=C(N[C@@H](CCCc1ccccc1)B(O)O)[C@@H](CC(=O)N1CCOCC1)NCCc1ccccc1` [Compound 40, ((R)-1-((R)-4-morpholino-4-oxo-2-(phenethylamino)butanamido)-4-phenylbutyl)boronic acid] it was 50 to 500 nM; in that of `CC(C)(C)OC(=O)N(CCc1ccccc1)[C@H](CC(=O)N1CCOCC1)C(=O)N[C@@H](CCCc1ccccc1)B(O)O` [Compound 41, ((R)-1-((R)-2-((tert-butoxycarbonyl)(phenethyl)amino)-4-morpholino-4-oxobutanamido)-4-phenylbutyl)boronic acid], 500 to 5000 nM.
With `O=C(N[C@@H](CCCc1ccccc1)B(O)O)[C@@H](CC(=O)N1CCOCC1)NC(=O)N1CCCC1` [Compound 42, ((R)-1-((R)-4-morpholino-4-oxo-2-(pyrrolidine-1-carboxamido)butanamido)-4-phenylbutyl)boronic acid], the IC50 lay in the range of 50 to 500 nM.
Consider `CNC(=O)N[C@H](CC(=O)N1CCOCC1)C(=O)N[C@@H](CCCc1ccccc1)B(O)O` [Compound 43, ((R)-1-((R)-2-(3-methylureido)-4-morpholino-4-oxobutanamido)-4-phenylbutyl)boronic acid], for which the 50% inhibitory concentration (IC50) fell in the range of 50 to 500 nM.
Regarding `O=C(N[C@@H](CCCc1ccccc1)B(O)O)[C@@H](CC(=O)N1CCOCC1)NC(=O)N1CC[C@@H](O)C1` [Compound 44, ((R)-1-((R)-2-((R)-3-hydroxypyrrolidine-1-carboxamido)-4-morpholino-4-oxobutanamido)-4-phenylbutyl)boronic acid], the IC50 fell in the range of 50 to 500 nM.
Regarding `O=C(N[C@@H](CCCc1ccccc1)B(O)O)[C@@H](CC(=O)N1CCOCC1)NC(=O)N1CC[C@H](O)C1` [Compound 45, ((R)-1-((R)-2-((S)-3-hydroxypyrrolidine-1-carboxamido)-4-morpholino-4-oxobutanamido)-4-phenylbutyl)boronic acid], the IC50 is 50 to 500 nM.
With `O=C(N[C@@H](CCCc1ccccc1)B(O)O)[C@@H](CC(=O)N1CCOCC1)Nc1ccccc1` [Compound 46], the IC50 lay within 50 to 500 nM.
Turning to `O=C(N[C@H](CC(=O)N1CCOCC1)C(=O)N[C@H]1CCOB1O)c1cnccn1` [Compound 47, N—((R)-1-(((R)-2-hydroxy-1,2-oxaborolan-3-yl)amino)-4-morpholino-1,4-dioxobutan-2-yl)pyrazine-2-carboxamide], the concentration for half-maximal inhibition (IC50) is above 5000 nM.
For the molecule `O=C(N[C@@H](CCCc1ccccc1)B(O)O)[C@@H](CC(=O)N1CCOCC1)NC(=O)[C@H]1CCCCO1` [Compound 48, ((R)-1-((R)-4-morpholino-4-oxo-2-((R)-tetrahydro-2H-pyran-2-carboxamido)butanamido)-4-phenylbutyl)boronic acid], the IC50 was 50 to 500 nM.
On to `O=C(N[C@H](CC(=O)N1CCOCC1)C(=O)N[C@@H](CCCc1ccccc1)B(O)O)[C@@H]1CCCCO1` [Compound 49, ((R)-1-((R)-4-morpholino-4-oxo-2-((S)-tetrahydro-2H-pyran-2-carboxamido)butanamido)-4-phenylbutyl)boronic acid], for which the IC50 was 50 to 500 nM.

Broadly, the IC50 is the midpoint of a concentration-inhibition curve.
